Patent publication US20060039866A1, “Method for treating sleep-related breathing disorders” (Cypress Bioscience, Inc., priority 2004, published 2006)

Key:
[1] = tested on: patients with sleep apnea; settings: cited from earlier work; for benefit in OSAS / obstructive sleep apnea: individuals with obstructive apnea
[2] = tested on: animal model of sleep apnea; settings: cited from earlier work
[3] = treating OSA with MER 810; settings: in vivo
Excerpt: The latter has been associated with worsening OSA symptoms due to reduction in upper airway tone in animal models. However, this pharmacology may also increase SWS and increase respiratory drive via peripheral effects, while its serotonin (5-HT) reuptake inhibition and 5-HT1A agonist activities decrease REM sleep. The 5-HT1A agonist activity also increases respiratory drive and may increase upper airway muscle tone (Homer). Adding a noradrenergic alpha1 agonist, alpha2 antagonist or reuptake inhibitor bolsters the latter effect.

rat model = settings: cited from earlier work
[4] = individuals with obstructive sleep apnea

Compound: C=CCN1CC[C@]23c4c5ccc(O)c4O[C@H]2C(=O)CC[C@@]3(O)[C@H]1C5 [naloxone]
- benefit in OSAS / obstructive sleep apnea [1]: only slightly helpful

Compound: CC(=O)Nc1nnc(S(N)(=O)=O)s1 [acetazolamide, N-(5-[Aminosulfonyl]-1,3,4-thiadiazol-2-yl)acetamide]
- apnea/hypopnea frequency ([1]; Whyte et al., Sleep): improvement in apnea/hypopnea frequency
- frequency of 4% desaturation ([1]; Whyte et al., Sleep): decreased the frequency of 4% desaturation

Compound: Nc1ncnc2c1ncn2[C@@H]1O[C@H](CO)[C@@H](O)[C@H]1O [adenosine]
- reducing apnea [2]: somewhat effective

Compound: CNCCCC1c2ccccc2C=Cc2ccccc21 [Protriptyline]
- results of several small trials ([1]; individuals with OSAS): variable results
- side effects ([1]; several small trials): frequent and significant side effects

Compound: CC1CN(c2cccc(Cl)c2)CCN1CCCn1nc2ccccn2c1=O (stereo not shown) [MER 810]
- effectiveness in treating OSA [3]: quite effective

Compound: CN1CCN2c3ncccc3Cc3ccccc3C2C1 (stereo not shown) [mirtazapine, 1,2,3,4,10,14b-hexahydro-2-methylpyrazino[2,1-a]pyrido[2,3-c]benzazepine]
- efficacy in the rat model (rat model): appeared effective

Compound: medroxyprogesterone
- benefit in OSAS / obstructive sleep apnea [1]: no consistent benefit

Compound: Cn1c(=O)c2[nH]cnc2n(C)c1=O [theophylline]
- benefit in OSAS / obstructive sleep apnea [1]: of no use
- benefit in central apnea ([1]; patients with central apnea): may benefit

Compound: CCN1CC(CCN2CCOCC2)C(c2ccccc2)(c2ccccc2)C1=O (stereo not shown) [doxapram]
- average arterial oxygen saturation [1, 4]: did not alter
- length of apneas [1, 4]: decrease the length of apneas
